Strand notation (5' to 3'): a small letter for the sugar, then the base; units joined by * are phosphorothioate-linked, units joined directly phosphodiester-linked; [ ] holds rarer units or linkages, { } end groups; capitals alone tell only the bases. [ms] = mesyl phosphoramidate linkage; k = constrained ethyl (cEt); [5mC] = 5-methylcytosine; d = 2'-deoxy (DNA)
Assays:
human APOE RNA [1] = assay: Activity in APOE C57BL/6NTac-Apoeem7250 knock-in mice, single ICV bolus, 8 weeks (Example 11); assay type: in vivo; conditions: single ICV bolus 300 μg, 8 weeks post treatment, normalized to mouse Ppia
Method in brief: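 Human APOE knock-in C57BL/6NTac mice given one ICV bolus of 300 μg oligonucleotide; PBS-dosed group as control. At 8 weeks, cortex and spinal cord RNA measured by qRT-PCR (human probe RTS3073), normalized to mouse Ppia, expressed as % of PBS control.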

human APOE RNA [2] = assay: Duration of action study in APOE C57BL/6NTac-Apoeem7250 knock-in mice (Example 16); assay type: in vivo; conditions: 300 μg ICV
Protocol: Modified oligonucleotides described above were tested in the APOE C57BL/6NTac-Apoeem7250 knock-in mouse model described above.
APOE C57BL/6NTac-Apoeem7250 knock-in mice were divided into groups of 2-4 mice each. Each mouse received a single intracerebroventricular (ICV) bolus of 300 μg of modified oligonucleotide. A group of 2-4 mice received a single ICV bolus with PBS as a negative control.
Mice were sacrificed at various timepoints as indicated in the table below and RNA was extracted from cortical brain tissue and spinal cord for quantitative real-time RT-PCR analysis of RNA expression of APOE using primer probe set RTS3073 (described herein above). APOE RNA levels were normalized to mouse Ppia. Mouse Ppia was amplified using primer probe set m_cyclo24 (described herein above). Results are presented as percent human APOE RNA relative to the amount of human APOE RNA in PBS treated animals, (% control). Each experiment is identified in separate tables below.

human APOE RNA [3] = assay: Dose-dependent inhibition of human APOE RNA in HepG2 cells, electroporation, 50,000 cells per well, RT-PCR normalized to GAPDH (Example 4, Tables 8-10); assay type: cell-based; conditions: HepG2, electroporation, 24-hour treatment
Method in brief: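 HepG2 cells, 50,000 per well, electroporated with modified oligonucleotide at various concentrations. APOE RNA quantified by RT-PCR with human primer probe set RTS3073, normalized to GAPDH. Values are percent APOE RNA relative to untreated control cells.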

human APOE RNA [4] = assay: Activity in APOE C57BL/6NTac-Apoeem7250 knock-in mice, single ICV bolus, 4 weeks (Example 10); assay type: in vivo; conditions: single ICV bolus 300 μg, 4 weeks post treatment, normalized to mouse Ppia
Method in brief: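 Knock-in mice (2–4 per group) received one 300 μg ICV bolus of oligonucleotide or PBS. After four weeks, human APOE RNA in cortex and spinal cord measured by RT-qPCR (primer probe set RTS3073), normalized to mouse Ppia, expressed as % of PBS controls.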

Substance | APOE RNA (% control) Cortex (human APOE RNA [1]) | APOE RNA (% control) Spinal Cord (human APOE RNA [1]) | APOE RNA (% control) Cortex (human APOE RNA [2]; 112 days post-dose) | APOE RNA (% control) Cortex (human APOE RNA [2]; 140 days post-dose) | APOE RNA (% control) Spinal Cord (human APOE RNA [2]; 112 days post-dose) | APOE RNA (% control) Spinal Cord (human APOE RNA [2]; 140 days post-dose) | APOE RNA (% UTC) (human APOE RNA [3]; 5 nM) | APOE RNA (% UTC) (human APOE RNA [3]; 13 nM) | APOE RNA (% UTC) (human APOE RNA [3]; 33 nM) | APOE RNA (% UTC) (human APOE RNA [3]; 82 nM) | APOE RNA (% UTC) (human APOE RNA [3]; 205 nM) | APOE RNA (% UTC) (human APOE RNA [3]; 512 nM) | APOE RNA (% UTC) (human APOE RNA [3]; 1,280 nM) | APOE RNA (% UTC) (human APOE RNA [3]; 3,200 nM) | APOE RNA (% UTC) (human APOE RNA [3]; 8,000 nM) | APOE RNA (% UTC) (human APOE RNA [3]; 20,000 nM) | IC50 (human APOE RNA [3]) | APOE RNA (% control) Cortex (human APOE RNA [4]) | APOE RNA (% control) Spinal Cord (human APOE RNA [4])
1746800 (k[5mC]*dT[ms]kT*dG[ms]dG[ms]kT*dG[ms]dA[ms]dA[ms]dT*d[5mC]*dT*dT*dT*dA[ms]dT*kT*dA[ms]kA*kA; antisense) [Compound 1746800] | 40 % control | 30 % control | 52 % control | 75 % control | 88 % control | 58 % control | 108 % UTC | 111 % UTC | 137 % UTC | 115 % UTC | 97 % UTC | 77 % UTC | 87 % UTC | 39 % UTC | 35 % UTC | 8 % UTC | 3270 nM | 41 % control | 40 % control
1747050 (k[5mC]*kT*kT*dG[ms]dG[ms]kT*dG[ms]dA[ms]dA[ms]dT*d[5mC]*dT*dT*dT*dA[ms]dT*kT*dA[ms]dA[ms]kA; antisense) [Compound 1747050] | 36 % control | 23 % control | 63 % control | 74 % control | 93 % control | 86 % control | 182 % UTC | 135 % UTC | 115 % UTC | 111 % UTC | 110 % UTC | 76 % UTC | 49 % UTC | 31 % UTC | 14 % UTC | 10 % UTC | 1540 nM | 29 % control | 45 % control
1746790 (k[5mC]*dT[ms]kT*dG[ms]dG[ms]kT*dG[ms]dA[ms]dA[ms]dT*d[5mC]*dT*dT*dT*dA[ms]dT*kT*kA*dA[ms]kA; antisense) [Compound 1746790] | – | – | 75 % control | 77 % control | 62 % control | 108 % control | 104 % UTC | 133 % UTC | 94 % UTC | 112 % UTC | 89 % UTC | 63 % UTC | 20 % UTC | 24 % UTC | 15 % UTC | 8 % UTC | 750 nM | 53 % control | 61 % control
1746810 (k[5mC]*dT[ms]kT*dG[ms]dG[ms]kT*dG[ms]dA[ms]dA[ms]dT*d[5mC]*dT*dT*dT*dA[ms]dT*dT[ms]kA*kA*kA; antisense) [Compound 1746810] | – | – | 63 % control | 82 % control | 80 % control | 106 % control | 109 % UTC | 106 % UTC | 95 % UTC | 77 % UTC | 68 % UTC | 46 % UTC | 36 % UTC | 13 % UTC | 8 % UTC | 5 % UTC | 490 nM | 56 % control | 80 % control
1746789 (k[5mC]*dT[ms]kT*dG[ms]kG*dT[ms]dG[ms]dA[ms]dA[ms]dT*d[5mC]*dT*dT*dT*dA[ms]dT*kT*kA*dA[ms]kA; antisense) [Compound 1746789] | – | – | 63 % control | 75 % control | 83 % control | 80 % control | 98 % UTC | 106 % UTC | 84 % UTC | 102 % UTC | 76 % UTC | 64 % UTC | 37 % UTC | 19 % UTC | 10 % UTC | 4 % UTC | 830 nM | 60 % control | 41 % control
1753989 (k[5mC]*dT[ms]kT*dG[ms]kG*dT*dG[ms]dA[ms]dA[ms]dT*d[5mC]*dT*dT*dT*dA[ms]kT*dT[ms]kA*dA[ms]kA; antisense) [Compound 1753989] | – | – | 58 % control | 72 % control | 117 % control | 79 % control | 113 % UTC | 108 % UTC | 102 % UTC | 79 % UTC | 94 % UTC | 76 % UTC | 49 % UTC | 33 % UTC | 25 % UTC | 16 % UTC | 1670 nM | 54 % control | 49 % control
1746803 (k[5mC]*dT[ms]dT[ms]kG*dG[ms]kT*dG[ms]dA[ms]dA[ms]dT*d[5mC]*dT*dT*dT*dA[ms]dT*kT*dA[ms]kA*kA; antisense) [Compound 1746803] | – | – | 54 % control | 73 % control | 74 % control | 82 % control | 93 % UTC | 83 % UTC | 84 % UTC | 114 % UTC | 68 % UTC | 61 % UTC | 31 % UTC | 29 % UTC | 22 % UTC | 39 % UTC | 1100 nM | 51 % control | 39 % control

Reference: US20250353873A1, “COMPOUNDS AND METHODS FOR MODULATING APOE EXPRESSION” (Ionis Pharmaceuticals, Inc., priority 2024, published 2025)
